# Values quoted from earlier work, collected in EP0918795B1, “ANTIANGIOGENIC DRUG TO TREAT CANCER, ARTHRITIS AND RETINOPATHY” (Abbott Laboratories, priority 1997, dated 2004).
# No end group written: not given here.
# What was measured:
# [1] = system: cultured endothelial cells; conditions: inhibition of the migration of cultured endothelial cells
sequence,measurement,setting,value
"SPWSSASVTAGDGVITRIR [MalII, 19-mer synthetic peptide mimicking properdin-like repeat region 1 of TSP1]",ED50,[1],about 1 µM
same,neovascularization in vivo in the rat cornea,rat cornea,blocked neovascularization
